According to the NIST ThermoML archive (doi:10.1021/je300202z):
Where “and” joins values, the source holds several entries; their conditions need not be identical. Equal values may be shown once. Numbers after ± are expanded uncertainties.

Conditions: Liquid, Ebulliometric method (Recirculating still)

vapor or sublimation pressure (388.6 K) [kPa] | vapor or sublimation pressure (396.1 K) [kPa] | vapor or sublimation pressure (400.4 K) [kPa] | vapor or sublimation pressure (402.3 K) [kPa] | vapor or sublimation pressure (404.2 K) [kPa] | vapor or sublimation pressure (407.5 K) [kPa] | vapor or sublimation pressure (407.8 K) | SMILES | vapor or sublimation pressure (408.2 K) [kPa] | vapor or sublimation pressure (416.7 K) [kPa] | vapor or sublimation pressure (421.5 K) [kPa] | vapor or sublimation pressure (423.7 K) [kPa] | vapor or sublimation pressure (425.8 K) [kPa] | vapor or sublimation pressure (428.8 K) | vapor or sublimation pressure (429.7 K) [kPa]
53.33 ± 2.4 | 69.33 ± 2.5 | 80 ± 2.8 | 85.33 ± 3 | 90.66 ± 3.2 | 100.93 ± 3.3 | 101.33 ± 3.1 kPa and 100.93 ± 5.6 kPa | CCOCCO [2-ethoxyethan-1-ol] | – | – | – | – | – | – | –
– | – | – | – | – | – | – | CCOCCOC(C)=O [2-ethoxyethyl ethanoate] | 53.33 ± 2.1 | 69.33 ± 2.2 | 80 ± 2.5 | 85.33 ± 2.7 | 90.66 ± 3.3 | 101.33 ± 3.7 kPa and 100.93 ± 5.5 kPa | 100.93 ± 2.8
